According to US10351539B2, “Macrocyclic complexes, their process of preparation and use as PET imaging agents” (INSTITUT NATIONAL DE LA SANTE ET DE LA RECHERCHE MEDICALE …, priority 2014, dated 2019):
Like-named read-outs stand apart in the source and are kept apart here.

Experiments:
[1] = Study 1: biodistribution of ^99mTc-NTP 15-5 in healthy rat; type: in vivo; conditions: 1 h p.i., 0.37 MBq, average from 3 animals ± SD
Experimental: Quantitative biodistribution of radiolabelled compounds was determined in rats: healthy animals as well as rats with primary grade II orthotopic chondrosarcoma at stage Day-30 after induction. The chondrosarcoma model was the Swarm Rat Chondrosarcoma model (SRC) implanted in paratibial location. […] One hour after injection, animals were then sacrificed by CO2 inhalation, dissected and organs of interest removed, weighed and their radioactivity counted using a gamma counter (Model 1480 Wizard, Perkin Elmer Life Sciences, Boston, USA). Organs collected were blood, muscle, knee, kidneys, liver, thoracic ribs, bladder for both healthy and chondrosarcoma bearing rats. For SRC animals, tumour was also sampled. After radioactive decay correction, results were expressed for each organ as % injected dose per gram (% ID/g) and averaged per group.
The following table discloses the biodistribution of ^99mTc-NTP 15-5 in healthy rat, carried out in similar conditions than those of the compounds of the invention (see section C above).

[2] = Study 2: biodistribution in healthy New Zealand rabbits (gamma counting of dissected organs); type: in vivo; conditions: i.v.
Experimental: Biodistribution were determined in 36 healthy New Zealand rabbits (18 males and 18 females, 14 weeks old, 3.5 kg weight, Charles River, France), being randomly divided into two groups: • One group receiving ^99mTc-NTP 15-5: 18±3 MBq/animal for biodistribution; • One group receiving ^64Cu-2: 17±4 MBq/animal for biodistribution.
The compounds were i.v. administered to anesthetized animals (ketamine/xylazine by intramuscular route) in the marginal ear vein.
At selected time points after injection (15 min, 1 h, 3 h, 6 h, 20 h after injection), animals (3 animals/time point/compound) were sacrificed by a lethal i.v. dose of pentobarbital. Organs of interest were dissected, weighed and their radioactivity measured using a gamma counter (Model 1480 Wizard, Perkin Elmer Life Sciences, Boston, USA). After radioactive decay correction, results were expressed for each organ as % injected dose per gram (% ID/g) and averaged per group and per time point.

[3] = Study 3: quantitative biodistribution of ^64Cu-5 in rats; type: in vivo
Experimental: (§1) Quantitative biodistribution of radiolabelled compounds was determined in rats: healthy animals as well as rats with primary grade II orthotopic chondrosarcoma at stage Day-30 after induction. The chondrosarcoma model was the Swarm Rat Chondrosarcoma model (SRC) implanted in paratibial location. Radiolabelled compounds (5-10 Mbq/animal) were i.v. administered in the caudal vein of animals being anesthetized of mixture of ketamine (58 mg/kg i.p.) (Imalgéne 500®) and xylazine (6 mg/kg i.p.) (Rompun® 2%, Bayer, France). One hour after injection, animals were then sacrificed by CO2 inhalation, dissected and organs of interest removed, weighed and their radioactivity counted using a gamma counter (Model 1480 Wizard, Perkin Elmer Life Sciences, Boston, USA). For SRC animals, tumor was also sampled. After radioactive decay correction, results were expressed for each organ as % injected dose per gram (% ID/g) and averaged per group.
The comparison was carried out between ^64Cu-5 and ^99mTc-NTPC, the NTPC ligand having the following structure: […]

[4] = Biodistribution in healthy and SRC bearing rats at 1 h after i.v. injection of radiolabelled compounds; type: in vivo; conditions: mean ± SD (n = 3)
Experimental: as §1, with “USA). Organs collected were blood, muscle, knee, kidneys, liver, thoracic ribs, bladder for both healthy and chondrosarcoma bearing rats.” for “USA).”, “tumour” for “tumor”

[5] = Maurizis et al. 2000, 7.4 MBq/Kg; cited from earlier work
[6] = i.v., 5-10 MBq/animal, one hour after injection

SMILES: CC[N+](CC)(CC)CCCN1CC[N]2CC[N]3CC[N]4CC[N](CC1)[Tc]234(=[O])=[O].[Br-] [^99mTc-NTP 15-5, reference compound]
- Blood [1]: 0.90 ± 0.08 % ID/g
- Bone (tibia) [1]: 0.51 ± 0.29 % ID/g
- Brain [1]: 0.14 ± 0.02 % ID/g
- Kidney [1]: 15.4 ± 12.5 % ID/g
- Liver [1]: 2.02 ± 0.38 % ID/g
- Lung [1]: 1.71 ± 0.97 % ID/g
- Muscle [1]: 0.37 ± 0.24 % ID/g
- Spleen [1]: 0.71 ± 0.25 % ID/g
- Testis [1]: 1.11 ± 0.47 % ID/g
- Tibial plateau [1]: 2.99 ± 1.60 % ID/g
- Uptake ratio Cartilage/Bone ([2]; 15 min): 51.5
- Uptake ratio Cartilage/Muscle ([2]; 15 min): 103
- Articular Cartilage ([2]; 15 min after injection): 1.03 ± 0.4 % ID/g
- Bile ([2]; 15 min after injection): 0.09 ± 0.08 % ID/g
- Blood ([2]; 15 min after injection): 1.09 ± 0.81 % ID/g
- Bone ([2]; 15 min after injection): 0.02 ± 0.01 % ID/g
- Bone Marrow ([2]; 15 min after injection): 0.02 ± 0.02 % ID/g
- Kidney ([2]; 15 min after injection): 0.19 ± 0.03 % ID/g
- Liver ([2]; 15 min after injection): 0.05 ± 0.02 % ID/g
- Lung ([2]; 15 min after injection): 0.04 ± 0.04 % ID/g
- Muscle ([2]; 15 min after injection): 0.01 ± 0.00 % ID/g
- Spleen ([2]; 15 min after injection): 0.03 ± 0.06 % ID/g
- Thyroid ([2]; 15 min after injection): 0.05 ± 0.04 % ID/g
- Urine ([2]; 15 min after injection): 1.40 ± 1.02 % ID/g
- Uptake ratio Cartilage/Bone ([2]; 1 h): 46
- Articular Cartilage ([2]; 1 h after injection): 0.92 ± 0.4 % ID/g
- Bile ([2]; 1 h after injection): 0.09 ± 0.07 % ID/g
- Blood ([2]; 1 h after injection): 0.75 ± 0.09 % ID/g
- Bone ([2]; 1 h after injection): 0.02 ± 0.00 % ID/g
- Bone Marrow ([2]; 1 h after injection): 0.01 ± 0.00 % ID/g
- Kidney ([2]; 1 h after injection): 0.10 ± 0.06 % ID/g
- Liver ([2]; 1 h after injection): 0.06 ± 0.03 % ID/g
- Lung ([2]; 1 h after injection): 0.02 ± 0.00 % ID/g
- Muscle ([2]; 1 h after injection): 0.00 ± 0.00 % ID/g
- Spleen ([2]; 1 h after injection): 0.02 ± 0.01 % ID/g
- Thyroid ([2]; 1 h after injection): 0.06 ± 0.03 % ID/g
- Urine ([2]; 1 h after injection): 4.08 ± 5.75 % ID/g
- Articular Cartilage ([2]; 3 h after injection): 0.35 ± 0.15 % ID/g
- Bile ([2]; 3 h after injection): 0.18 ± 0.24 % ID/g
- Blood ([2]; 3 h after injection): 0.17 ± 0.81 % ID/g
- Bone ([2]; 3 h after injection): 0.00 ± 0.00 % ID/g
- Bone Marrow ([2]; 3 h after injection): 0.00 ± 0.00 % ID/g
- Kidney ([2]; 3 h after injection): 0.09 ± 0.03 % ID/g
- Liver ([2]; 3 h after injection): 0.08 ± 0.02 % ID/g
- Lung ([2]; 3 h after injection): 0.01 ± 0.00 % ID/g
- Muscle ([2]; 3 h after injection): 0.00 ± 0.00 % ID/g
- Spleen ([2]; 3 h after injection): 0.00 ± 0.00 % ID/g
- Thyroid ([2]; 3 h after injection): 0.11 ± 0.01 % ID/g
- Urine ([2]; 3 h after injection): 1.34 ± 0.52 % ID/g
- Articular Cartilage ([2]; 6 h after injection): 0.09 ± 0.03 % ID/g
- Bile ([2]; 6 h after injection): 0.08 ± 0.02 % ID/g
- Blood ([2]; 6 h after injection): 0.03 ± 0.00 % ID/g
- Bone ([2]; 6 h after injection): 0.00 ± 0.00 % ID/g
- Bone Marrow ([2]; 6 h after injection): 0.00 ± 0.00 % ID/g
- Kidney ([2]; 6 h after injection): 0.06 ± 0.01 % ID/g
- Liver ([2]; 6 h after injection): 0.06 ± 0.01 % ID/g
- Lung ([2]; 6 h after injection): 0.00 ± 0.00 % ID/g
- Muscle ([2]; 6 h after injection): 0.00 ± 0.00 % ID/g
- Spleen ([2]; 6 h after injection): 0.00 ± 0.00 % ID/g
- Thyroid ([2]; 6 h after injection): 0.02 ± 0.03 % ID/g
- Urine ([2]; 6 h after injection): 1.61 ± 0.6 % ID/g
- Articular Cartilage ([2]; 20 h after injection): 0.04 ± 0.01 % ID/g
- Bile ([2]; 20 h after injection): 0.03 ± 0.01 % ID/g
- Blood ([2]; 20 h after injection): 0.00 ± 0.00 % ID/g
- Bone ([2]; 20 h after injection): 0.00 ± 0.00 % ID/g
- Bone Marrow ([2]; 20 h after injection): 0.00 ± 0.00 % ID/g
- Kidney ([2]; 20 h after injection): 0.07 ± 0.00 % ID/g
- Liver ([2]; 20 h after injection): 0.03 ± 0.02 % ID/g
- Lung ([2]; 20 h after injection): 0.00 ± 0.00 % ID/g
- Muscle ([2]; 20 h after injection): 0.00 ± 0.00 % ID/g
- Spleen ([2]; 20 h after injection): 0.01 ± 0.00 % ID/g
- Thyroid ([2]; 20 h after injection): 0.00 ± 0.00 % ID/g
- Urine ([2]; 20 h after injection): 0.40 ± 0.01 % ID/g

SMILES: CC[N+](CC)(CC)CCCN1CCCNCCNCCCNCC1.[64Cu+2] [^64Cu-5, [^64Cu]—N,N,N-Triethyl-3-(1,4,8,11-tetraazacyclotetradecan-1-yl)propan-1-aminium copper(II)]
- Uptake in kidneys compared to ^99mTc-NTPC [3]: higher uptake
- Uptake in liver [3]: undetectable
- Uptake in target organs (intervertebral disc and articular cartilage) compared to ^99mTc-NTPC [3]: higher uptake
- Articular Cartilage [3, 6]: 5.9 ± 2.3 % ID/g
- Blood [3, 6]: 0.8 ± 1.2 % ID/g
- Intervertebral disc [3, 6]: 3.5 ± 0.6 % ID/g
- Kidney [3, 6]: 27.5 ± 10.1 % ID/g
- Elimination compared to ^99mTc-NTPC ([3]; indicated by accumulation in kidneys): good elimination
- In vivo stability (Cu is not released) ([3]; inferred from liver uptake): stable
- Tumor ([4]; SRC (Swarm Rat Chondrosarcoma) bearing rats): 5.2 ± 2.1 % ID/g
- Articular Cartilage ([4]; healthy and SRC bearing rats): 5.9 ± 2.3 % ID/g
- Bladder ([4]; healthy and SRC bearing rats): 66.5 ± 14.4 % ID/g
- Blood ([4]; healthy and SRC bearing rats): 0.8 ± 1.2 % ID/g
- Kidney ([4]; healthy and SRC bearing rats): 27.5 ± 10.1 % ID/g
- Muscle ([4]; healthy and SRC bearing rats): 1.5 ± 1.2 % ID/g

SMILES: CC[N+](CC)(CC)CCCN1CCCNCCNCCCNCC1 [^99mTc-NTPC, metal not drawn]
- Articular Cartilage [5]: 0.52 ± 0.08 % ID/g
- Blood [5]: 0.22 ± 0.05 % ID/g
- Intervertebral disc [5]: 0.36 ± 0.09 % ID/g
- Kidney [5]: 2.96 ± 0.36 % ID/g
- Liver [5]: 4.34 ± 0.47 % ID/g
